Assay [1] has as its target T1, D(3) dopamine receptor (Homo sapiens, UniProt P35462). Kind of assay: Rate of [3H]thymidine uptake compared to quinpirole (100%) in Dopamine receptor D3 expressing CHO cells. In kind it is functional, cell-based. To be noted: Cricetulus griseus.
The target of assay [2] is Adrenergic receptor alpha-1 (Sus scrofa). Description: […] from porcine Alpha-1 adrenergic receptor. In kind it is protein assay.
Assay [3] deals with T2, D(4) dopamine receptor (Homo sapiens, UniProt P21917).
T2 sequence (P21917 whole entry): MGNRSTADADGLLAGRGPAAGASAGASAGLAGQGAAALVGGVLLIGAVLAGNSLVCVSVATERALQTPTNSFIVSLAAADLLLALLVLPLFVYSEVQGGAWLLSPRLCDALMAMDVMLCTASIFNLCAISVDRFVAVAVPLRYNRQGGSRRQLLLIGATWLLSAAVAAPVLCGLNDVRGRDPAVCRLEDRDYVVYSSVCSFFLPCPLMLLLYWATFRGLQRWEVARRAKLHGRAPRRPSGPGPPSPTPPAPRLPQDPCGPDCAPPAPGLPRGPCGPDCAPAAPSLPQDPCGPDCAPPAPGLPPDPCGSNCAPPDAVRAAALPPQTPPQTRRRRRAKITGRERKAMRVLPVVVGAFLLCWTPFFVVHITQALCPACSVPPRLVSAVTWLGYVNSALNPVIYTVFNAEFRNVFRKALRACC
Description: Binding affinity for human Dopamine receptor D4 by [3H]- spiperone displacement.

Assay [4] deals with T3, D(2) dopamine receptor (Homo sapiens, UniProt P14416).
T3 sequence (P14416 whole entry): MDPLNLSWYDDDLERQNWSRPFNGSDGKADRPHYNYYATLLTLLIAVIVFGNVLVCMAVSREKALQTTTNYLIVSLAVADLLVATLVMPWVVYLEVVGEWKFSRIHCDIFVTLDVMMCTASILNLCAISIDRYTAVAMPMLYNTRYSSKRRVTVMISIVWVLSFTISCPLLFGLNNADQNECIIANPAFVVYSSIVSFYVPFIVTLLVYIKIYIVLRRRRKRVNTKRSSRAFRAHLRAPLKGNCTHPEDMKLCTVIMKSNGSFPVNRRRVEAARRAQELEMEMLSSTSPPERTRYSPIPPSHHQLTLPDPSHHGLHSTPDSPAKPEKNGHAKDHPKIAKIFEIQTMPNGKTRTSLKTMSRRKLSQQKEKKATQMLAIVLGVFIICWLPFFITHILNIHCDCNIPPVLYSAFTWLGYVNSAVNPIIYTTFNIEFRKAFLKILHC
Description: Binding affinity for human Dopamine receptor D2 (long) by [3H]- spiperone displacement.
Assay [5] concerns the target T3, D(2) dopamine receptor. This is another data set of the same source.
Description: Binding affinity for human Dopamine receptor D2 (short) by [3H]- spiperone displacement.
Assay [6] deals with T1, D(3) dopamine receptor.
Description: Binding affinity for human Dopamine receptor D3 by [3H]- spiperone displacement.
Assay [7] addresses T1, D(3) dopamine receptor. To be noted: Cricetulus griseus; CHO.
The target in assay [8] is 5-HT2 receptor (Sus scrofa). Kind of assay: Binding affinity for porcine 5-hydroxytryptamine 2 receptor using [3H]- ketanserin.
The target in assay [9] is T1, D(3) dopamine receptor. To be noted: Cricetulus griseus; CHO. The source holds these as a separate data set.

Active and inactive are the calls of the source. The calls are words filed in the database; no cut-off is given here.

A word on the Ki: it is the dissociation constant of the complex between target and ligand, obtained from inhibition or displacement.

T1 sequence (P35462 whole entry): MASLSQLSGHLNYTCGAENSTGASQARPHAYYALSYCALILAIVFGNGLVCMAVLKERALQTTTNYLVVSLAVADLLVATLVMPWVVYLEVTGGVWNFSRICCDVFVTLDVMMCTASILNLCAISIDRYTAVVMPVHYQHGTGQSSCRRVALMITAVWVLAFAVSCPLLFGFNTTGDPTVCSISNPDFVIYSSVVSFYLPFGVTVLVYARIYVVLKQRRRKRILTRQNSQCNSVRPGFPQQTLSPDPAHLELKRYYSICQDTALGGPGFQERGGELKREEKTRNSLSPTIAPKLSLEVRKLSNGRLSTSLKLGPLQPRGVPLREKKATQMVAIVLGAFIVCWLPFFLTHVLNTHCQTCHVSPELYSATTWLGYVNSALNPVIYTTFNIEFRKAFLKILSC

On to `COc1ccccc1N1CCN(CCCCNC(=O)c2cc3ccccn3n2)CC1`, for which the Effect in assay [1] was 52%.

Consider `O=C(NCCCCN1CCN(c2cccc(Cl)c2Cl)CC1)c1cc2ccccc2[te]1`, for which the inhibition constant (Ki) in assay [2] is over 1000 nM; in [3] it was 150 nM; in [4], 91 nM; in assay [5], 48 nM; in assay [6], 0.55 nM; in assay [8], 730 nM. Besides, the NE result in assay [7] is “inactive”.

As for `O=C(NCCCCN1CCN(c2cccc(Cl)c2Cl)CC1)c1cc2ccccc2o1`, the Effect result in assay [9] is “inactive”.

On to `COc1ccccc1N1CCN(CCCCNC(=O)c2cc3ccccc3[te]2)CC1`, for which the NE result in [7] was “inactive”.

Regarding `O=C(NCCCCN1CCN(c2cccc(Cl)c2Cl)CC1)c1cc2ccccc2s1`, in [7], the NE result is “inactive”.
